5 molecules from patent US9936701B2, “Herbicidal compounds” (Syngenta Participations AG, priority 2013, dated 2018) can be followed below.

The term melting point denotes the temperature of the solid-liquid transition.

In one data set the test system is a variety of test species. The experiment in a line: Post-emergence herbicidal activity (glasshouse, sprayed after 8 days cultivation, evaluated after 13 days). Format: in vivo. The arrangement: key: 5=total damage to plant; 0=no damage to plant. Conditions: Abutilon theophrasti, rate 1000 g/Ha, scale 0-5. The gist of the method: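 Damage was rated 0-5 (5 = total) 13 days after a post-emergence spray of acetone/water (50:50) plus 0.5% Tween 20 formulation. Plants were sprayed at 8 days' growth and kept at 24/16° C, 14 h light, 65% humidity, watered twice daily.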
On to `CC1=C(Br)C(=O)N(c2noc(C(C)(C)C)c2C#N)C1O` (centres unmarked) [A50], for which the “ABUTH (Abutilon theophrasti) damage score, application post-emergence” value (shortened to “ABUTH … application post-emergence”) is on record as 5.
Consider `CCCC1=C(Br)C(=O)N(c2noc(C(C)(C)C)c2C#N)C1O` (centres unmarked) [A51], for which the “ABUTH … application post-emergence” value was found to be 5.
On to `CCCC1=C(Br)C(=O)N(c2cc(C(C)(C)C#N)on2)C1O` (centres unmarked) [A52], for which the “ABUTH … application post-emergence” value turned out to be 5.
With `CC1=C(Br)C(=O)N(c2cc(C(C)(C)C#N)on2)C1O` (centres unmarked) [A53], the “ABUTH … application post-emergence” value came to 5.
On to `CCCC1=C(Cl)C(=O)N(c2noc(C(C)(C)C)c2C#N)C1O` (centres unmarked) [A54], for which the “ABUTH … application post-emergence” value was determined as 5.

Still in this data set, the particulars now being: Alopecurus myosuroides, rate 1000 g/Ha, scale 0-5.
For `CC1=C(Br)C(=O)N(c2noc(C(C)(C)C)c2C#N)C1O` (centres unmarked) [A50], the “ALOMY (Alopecurus myosuroides) damage score, application post-emergence” value (from here on “ALOMY … application post-emergence”) was 4.
Consider `CCCC1=C(Br)C(=O)N(c2noc(C(C)(C)C)c2C#N)C1O` (centres unmarked) [A51], for which the “ALOMY … application post-emergence” value is on record as 4.
Turning to `CCCC1=C(Br)C(=O)N(c2cc(C(C)(C)C#N)on2)C1O` (centres unmarked) [A52], the “ALOMY … application post-emergence” value was determined as 5.
Still for that read-out and setting: as for `CC1=C(Br)C(=O)N(c2cc(C(C)(C)C#N)on2)C1O` (centres unmarked) [A53], the figure is 5; as for `CCCC1=C(Cl)C(=O)N(c2noc(C(C)(C)C)c2C#N)C1O` (centres unmarked) [A54], 5.

The data set is the same for the next values; noted with them: Amaranthus retroflexus, rate 1000 g/Ha, scale 0-5.
For `CC1=C(Br)C(=O)N(c2noc(C(C)(C)C)c2C#N)C1O` (centres unmarked) [A50], the “AMARE (Amaranthus retroflexus) damage score, application post-emergence” value worked out at 5.
Still for that read-out and setting: as for `CCCC1=C(Br)C(=O)N(c2noc(C(C)(C)C)c2C#N)C1O` (centres unmarked) [A51], the figure is 5; as for `CCCC1=C(Br)C(=O)N(c2cc(C(C)(C)C#N)on2)C1O` (centres unmarked) [A52], 5.
Still for that read-out and setting: under `CC1=C(Br)C(=O)N(c2cc(C(C)(C)C#N)on2)C1O` (centres unmarked) [A53] stands 5.
The same measure, in the same setting: as for `CCCC1=C(Cl)C(=O)N(c2noc(C(C)(C)C)c2C#N)C1O` (centres unmarked) [A54], the figure is 5.

The same data set, now with this note: Echinochloa crus-galli, rate 1000 g/Ha, scale 0-5.
As for `CC1=C(Br)C(=O)N(c2noc(C(C)(C)C)c2C#N)C1O` (centres unmarked) [A50], the “ECHCG (Echinochloa crus-galli) damage score, application post-emergence” value (“ECHCG … application post-emergence” for short) is listed as 5.
Take `CCCC1=C(Br)C(=O)N(c2noc(C(C)(C)C)c2C#N)C1O` (centres unmarked) [A51]: the “ECHCG … application post-emergence” value amounted to 5.
In the case of `CCCC1=C(Br)C(=O)N(c2cc(C(C)(C)C#N)on2)C1O` (centres unmarked) [A52], the “ECHCG … application post-emergence” value turned out to be 5.
With `CC1=C(Br)C(=O)N(c2cc(C(C)(C)C#N)on2)C1O` (centres unmarked) [A53], the “ECHCG … application post-emergence” value turned out to be 5.
Consider `CCCC1=C(Cl)C(=O)N(c2noc(C(C)(C)C)c2C#N)C1O` (centres unmarked) [A54], for which the “ECHCG … application post-emergence” value was 5.

The data set is the same for the next values; noted with them: Setaria faberi, rate 1000 g/Ha, scale 0-5.
With `CC1=C(Br)C(=O)N(c2noc(C(C)(C)C)c2C#N)C1O` (centres unmarked) [A50], the “SETFA (Setaria faberi) damage score, application post-emergence” value (“SETFA (Setaria faberi) damage score” for short) is recorded as 5.
`CCCC1=C(Br)C(=O)N(c2noc(C(C)(C)C)c2C#N)C1O` (centres unmarked) [A51]: the “SETFA (Setaria faberi) damage score” value is 5.
On to `CCCC1=C(Br)C(=O)N(c2cc(C(C)(C)C#N)on2)C1O` (centres unmarked) [A52], for which the “SETFA (Setaria faberi) damage score” value worked out at 5.
Same read-out and setting: as for `CC1=C(Br)C(=O)N(c2cc(C(C)(C)C#N)on2)C1O` (centres unmarked) [A53], the figure is 5; as for `CCCC1=C(Cl)C(=O)N(c2noc(C(C)(C)C)c2C#N)C1O` (centres unmarked) [A54], 5.

The same data set, now with this note: Zea mays, rate 1000 g/Ha, scale 0-5.
Take `CC1=C(Br)C(=O)N(c2noc(C(C)(C)C)c2C#N)C1O` (centres unmarked) [A50]: the “ZEAMX (Zea mays) damage score, application post-emergence” value (“ZEAMX (Zea mays) damage score” below) came to 3.
As to `CCCC1=C(Br)C(=O)N(c2noc(C(C)(C)C)c2C#N)C1O` (centres unmarked) [A51], the “ZEAMX (Zea mays) damage score” value is reported as 3.
As to `CCCC1=C(Br)C(=O)N(c2cc(C(C)(C)C#N)on2)C1O` (centres unmarked) [A52], the “ZEAMX (Zea mays) damage score” value amounted to 5.
The same measure, in the same setting: under `CC1=C(Br)C(=O)N(c2cc(C(C)(C)C#N)on2)C1O` (centres unmarked) [A53] stands 5; under `CCCC1=C(Cl)C(=O)N(c2noc(C(C)(C)C)c2C#N)C1O` (centres unmarked) [A54], 5.

A further data set relates to a variety of test species. The experiment in a line: Pre-emergence herbicidal activity (glasshouse, sprayed one day after sowing, evaluated after 13 days). Conditions: ABUTH, application pre-emergence, rate 1000 g/Ha, scale 0-5. Format: in vivo. Also on record: key: 5=total damage to plant; 0=no damage to plant. Summed up: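 Damage was rated 13 days after treatment on a 0–5 scale (0 = no damage, 5 = total damage). Pots of seeds in standard soil were sprayed one day after sowing with an aqueous solution from an acetone/water (50:50), 0.5% Tween 20 formulation and kept at 24/16 °C day/night.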
On to `CC1=C(Br)C(=O)N(c2noc(C(C)(C)C)c2C#N)C1O` (centres unmarked) [A50], for which the “Pre-emergence herbicidal damage score, ABUTH” value worked out at 5.
Still for that read-out and setting: as for `CCCC1=C(Br)C(=O)N(c2noc(C(C)(C)C)c2C#N)C1O` (centres unmarked) [A51], the figure is 4; as for `CCCC1=C(Br)C(=O)N(c2cc(C(C)(C)C#N)on2)C1O` (centres unmarked) [A52], 5.
Still for that read-out and setting: under `CC1=C(Br)C(=O)N(c2cc(C(C)(C)C#N)on2)C1O` (centres unmarked) [A53] stands 5.
As to `CCCC1=C(Cl)C(=O)N(c2noc(C(C)(C)C)c2C#N)C1O` (centres unmarked) [A54], the “Pre-emergence herbicidal damage score, ABUTH” value amounted to 5.

Staying with this data set, now noted: ALOMY, application pre-emergence, rate 1000 g/Ha, scale 0-5.
Turning to `CC1=C(Br)C(=O)N(c2noc(C(C)(C)C)c2C#N)C1O` (centres unmarked) [A50], the “Pre-emergence herbicidal damage score, ALOMY” value turned out to be 3.
Same read-out and setting: as for `CCCC1=C(Br)C(=O)N(c2noc(C(C)(C)C)c2C#N)C1O` (centres unmarked) [A51], the figure is 3; as for `CCCC1=C(Br)C(=O)N(c2cc(C(C)(C)C#N)on2)C1O` (centres unmarked) [A52], 4.
As for `CC1=C(Br)C(=O)N(c2cc(C(C)(C)C#N)on2)C1O` (centres unmarked) [A53], the “Pre-emergence herbicidal damage score, ALOMY” value stood at 4.
With `CCCC1=C(Cl)C(=O)N(c2noc(C(C)(C)C)c2C#N)C1O` (centres unmarked) [A54], the “Pre-emergence herbicidal damage score, ALOMY” value was 4.

The data set is the same for the next values; noted with them: AMARE, application pre-emergence, rate 1000 g/Ha, scale 0-5.
As to `CC1=C(Br)C(=O)N(c2noc(C(C)(C)C)c2C#N)C1O` (centres unmarked) [A50], the “Pre-emergence herbicidal damage score, AMARE” value is listed as 5.
Turning to `CCCC1=C(Br)C(=O)N(c2noc(C(C)(C)C)c2C#N)C1O` (centres unmarked) [A51], the “Pre-emergence herbicidal damage score, AMARE” value was found to be 5.
For `CCCC1=C(Br)C(=O)N(c2cc(C(C)(C)C#N)on2)C1O` (centres unmarked) [A52], the “Pre-emergence herbicidal damage score, AMARE” value is recorded as 5.
On the same count and under the same terms, as for `CC1=C(Br)C(=O)N(c2cc(C(C)(C)C#N)on2)C1O` (centres unmarked) [A53], the figure is 5; as for `CCCC1=C(Cl)C(=O)N(c2noc(C(C)(C)C)c2C#N)C1O` (centres unmarked) [A54], 5.

Staying with this data set, now noted: ECHCG, application pre-emergence, rate 1000 g/Ha, scale 0-5.
Consider `CC1=C(Br)C(=O)N(c2noc(C(C)(C)C)c2C#N)C1O` (centres unmarked) [A50], for which the “Pre-emergence herbicidal damage score, ECHCG” value is 4.
For `CCCC1=C(Br)C(=O)N(c2noc(C(C)(C)C)c2C#N)C1O` (centres unmarked) [A51], the “Pre-emergence herbicidal damage score, ECHCG” value came out at 4.
Consider `CCCC1=C(Br)C(=O)N(c2cc(C(C)(C)C#N)on2)C1O` (centres unmarked) [A52], for which the “Pre-emergence herbicidal damage score, ECHCG” value amounted to 5.
Same read-out and setting: as for `CC1=C(Br)C(=O)N(c2cc(C(C)(C)C#N)on2)C1O` (centres unmarked) [A53], the figure is 5; as for `CCCC1=C(Cl)C(=O)N(c2noc(C(C)(C)C)c2C#N)C1O` (centres unmarked) [A54], 5.

The same data set, now with this note: SETFA, application pre-emergence, rate 1000 g/Ha, scale 0-5.
`CC1=C(Br)C(=O)N(c2noc(C(C)(C)C)c2C#N)C1O` (centres unmarked) [A50]: the “Pre-emergence herbicidal damage score, SETFA” value was found to be 5.
For the molecule `CCCC1=C(Br)C(=O)N(c2noc(C(C)(C)C)c2C#N)C1O` (centres unmarked) [A51], the “Pre-emergence herbicidal damage score, SETFA” value was 4.
Same read-out and setting: as for `CCCC1=C(Br)C(=O)N(c2cc(C(C)(C)C#N)on2)C1O` (centres unmarked) [A52], the figure is 5; as for `CC1=C(Br)C(=O)N(c2cc(C(C)(C)C#N)on2)C1O` (centres unmarked) [A53], 5; as for `CCCC1=C(Cl)C(=O)N(c2noc(C(C)(C)C)c2C#N)C1O` (centres unmarked) [A54], 5.

The same data set, now with this note: ZEAMX, application pre-emergence, rate 1000 g/Ha, scale 0-5.
For `CC1=C(Br)C(=O)N(c2noc(C(C)(C)C)c2C#N)C1O` (centres unmarked) [A50], the “Pre-emergence herbicidal damage score, ZEAMX” value amounted to 3.
Regarding `CCCC1=C(Br)C(=O)N(c2noc(C(C)(C)C)c2C#N)C1O` (centres unmarked) [A51], the “Pre-emergence herbicidal damage score, ZEAMX” value amounted to 3.
As to `CCCC1=C(Br)C(=O)N(c2cc(C(C)(C)C#N)on2)C1O` (centres unmarked) [A52], the “Pre-emergence herbicidal damage score, ZEAMX” value came out at 4.
With `CC1=C(Br)C(=O)N(c2cc(C(C)(C)C#N)on2)C1O` (centres unmarked) [A53], the “Pre-emergence herbicidal damage score, ZEAMX” value was determined as 4.
With `CCCC1=C(Cl)C(=O)N(c2noc(C(C)(C)C)c2C#N)C1O` (centres unmarked) [A54], the “Pre-emergence herbicidal damage score, ZEAMX” value is given as 4.

System in another data set: not given
Experiment: not given
Details: not given
Turning to `CC1=C(Br)C(=O)N(c2noc(C(C)(C)C)c2C#N)C1O` (centres unmarked) [A50], the melting point lay in the range of 182 to 184 °C.
For `CCCC1=C(Br)C(=O)N(c2noc(C(C)(C)C)c2C#N)C1O` (centres unmarked) [A51], the melting point was in the range of 123 to 124 °C.
Turning to `CCCC1=C(Br)C(=O)N(c2cc(C(C)(C)C#N)on2)C1O` (centres unmarked) [A52], the melting point lay in the range of 80 to 82 °C.
In turn, `CC1=C(Br)C(=O)N(c2cc(C(C)(C)C#N)on2)C1O` (centres unmarked) [A53] returned a melting point of 138 to 140 °C.
The molecule `CCCC1=C(Cl)C(=O)N(c2noc(C(C)(C)C)c2C#N)C1O` (centres unmarked) [A54] yielded a melting point of 133 to 135 °C.
